Test results as given in article PMC12647759 (Scientific Reports, 2025).
pIC50: −log10 of the molar value.

Target: T1, human PLCβ4 (Homo sapiens, UniProt Q15147)
T1 construct: expressing the full-length polypeptides of human PLCε, PLCβ4, PLCδ1 and PLCγ1 as FLAG fusions; made in house; host or cells: Expi293F cells
T1 sequence (Q15147 1-1175): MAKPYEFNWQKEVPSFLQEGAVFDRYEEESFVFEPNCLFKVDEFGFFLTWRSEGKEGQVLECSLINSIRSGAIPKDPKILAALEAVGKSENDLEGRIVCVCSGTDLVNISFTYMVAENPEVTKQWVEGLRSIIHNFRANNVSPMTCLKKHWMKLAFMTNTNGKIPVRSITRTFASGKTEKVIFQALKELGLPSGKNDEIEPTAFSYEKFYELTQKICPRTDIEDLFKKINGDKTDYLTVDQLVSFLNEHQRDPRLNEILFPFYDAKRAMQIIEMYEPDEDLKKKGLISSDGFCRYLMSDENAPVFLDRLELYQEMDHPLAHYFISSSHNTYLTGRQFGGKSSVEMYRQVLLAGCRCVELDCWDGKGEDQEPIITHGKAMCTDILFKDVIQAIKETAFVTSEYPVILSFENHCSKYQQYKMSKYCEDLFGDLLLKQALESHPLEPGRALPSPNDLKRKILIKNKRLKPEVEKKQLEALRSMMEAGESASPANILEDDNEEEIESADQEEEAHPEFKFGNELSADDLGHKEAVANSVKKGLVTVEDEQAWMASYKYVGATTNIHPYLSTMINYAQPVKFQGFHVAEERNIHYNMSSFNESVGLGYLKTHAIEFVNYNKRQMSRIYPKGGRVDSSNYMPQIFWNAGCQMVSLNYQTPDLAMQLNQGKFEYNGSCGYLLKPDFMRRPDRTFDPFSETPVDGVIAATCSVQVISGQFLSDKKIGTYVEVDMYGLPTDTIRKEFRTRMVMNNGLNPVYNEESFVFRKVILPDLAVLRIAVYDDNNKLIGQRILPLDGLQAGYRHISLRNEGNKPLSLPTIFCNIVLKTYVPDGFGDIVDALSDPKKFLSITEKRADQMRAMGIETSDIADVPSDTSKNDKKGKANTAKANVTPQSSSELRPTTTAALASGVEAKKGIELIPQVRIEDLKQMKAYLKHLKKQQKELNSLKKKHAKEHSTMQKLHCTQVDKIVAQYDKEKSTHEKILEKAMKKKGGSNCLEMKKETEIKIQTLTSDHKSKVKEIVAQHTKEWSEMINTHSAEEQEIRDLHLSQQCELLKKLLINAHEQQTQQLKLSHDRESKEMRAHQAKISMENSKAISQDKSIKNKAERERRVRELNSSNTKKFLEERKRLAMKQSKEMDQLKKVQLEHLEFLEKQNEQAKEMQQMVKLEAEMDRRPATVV
Assay: In vitro PLC assay using fluorogenic substrate Compound 1, PLCβ4
Assay type: biochemical
Conditions: for pIC50: purified PLCβ4, fluorogenic substrate Compound 1, read-out: IC50, inhibition of PLCβ4 (hydrolysis of Compound 1)
Description: Ten µl of 2 × substrate solutions (50 mM HEPES pH7.2, 200 mM NaCl, 0.2 mM CaCl2, 0.4 mM DTT, 0.4 µM EDTA, 0.02% gelatin, 0.2% sodium cholate and 60 µM Compound 1) were added to each well of a 384-well plate (CONING #3573) containing 10 µl of purified PLCε (120 ng) and incubated with shaking at 30 °C for 3 h. After terminating the reaction by the addition of 2 µl of 5 mM EDTA, the fluorescence emission was measured at 520 nm with the excitation at 485 nm by a microplate reader (POLARstar Omega-25). For measuring inhibition by compounds for HTS, the reactions were conducted at RIKEN Center for Sustainable Resource Science (CSRS) as described above except that 5 µl of compound solution and 5 µl of purified PLCe (120 ng) were added to each well. Solution dispensing and fluorescence detection were conducted by using an automated dispenser (EDR-384, Biotec) and a hybrid multi-mode microplate reader (Synergy H4, Biotec), respectively. For determination of the IC50 values for ZPT and Zn^2+, the EDTA concentration was reduced to one-tenth to avoid its zinc-chelating effect. For assay of the other PLC classes, the reactions were performed similarly except that PLCβ4 (5 ng), PLCδ1 (0.1 ng) or PLCγ1 (0.3 ng) was used instead of PLCε.

Row | pIC50 | Compound | inhibitory activity toward PLCβ (Compound 1 as substrate, varying concentrations)
1 |  | O=S(=O)([O-])[O-].[Zn+2] [ZnSO4] | without exhibiting any noticeable inhibitory activities
2 | 4.40 | COc1ccc2c(c[n+](C)c3c4cc5c(cc4ccc23)OCO5)c1OC [chelerythrine] | 
3 | 5.43 | CCCCCCOc1ccc2c(c1)Oc1cc(OP(=O)(O)O[C@H]3[C@H](O)[C@@H](O)[C@H](OP(=O)(O)O)[C@@H](O)[C@H]3O)ccc1C21OC(=O)c2ccccc21 (stereo partly shown) [compound 1] | 

Row | Compound | pIC50 | inhibitory activity toward PLCβ (Compound 1 as substrate, varying concentrations)
4 | C[n+]1cc2c3c(ccc2c2ccc4cc5c(cc4c21)OCO5)OCO3 [Sanguinarine, sanguinarine] | 4.10 | 
